The results in this text go back to patent US20230045421A1 (priority 2018, published 2023).

This experiment has as its system HBV rcDNA. Kind of experiment: HepDE19 assay with bDNA quantitation of HBV rcDNA. The class given is cell-based, hepatitis B virus. Conditions: HepDE19 assay, inhibition of formation of rcDNA; read-out: DE-19bDNA EC50. The method in brief: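 HepDE19 cells (HepG2-derived, Tet-regulated HBV replication) were deprived of tetracycline and then exposed to compounds for 7 days at 37 °C in 0.5% DMSO, 8-point titration from 25 μM. rcDNA was quantified by bDNA and EC50/EC90 came from 4-parameter fits. CC50 was measured by CellTiter-Glo ATP content on replicate plates after 4 days.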
For `Cc1cc(NC(=O)N(C)C(C)c2c(C)[nH]c(=O)c3ccccc23)ccc1F` (single isomer, unassigned) [Compound 236, 3-(4-Fluoro-3-methylphenyl)-1-methyl-1-(1-(3-methyl-1-oxo-1,2-dihydroisoquinolin-4-yl)ethyl)urea], the EC50 is 410 nM. With `Cc1cc(NC(=O)N(C)C(C)c2c(C)[nH]c(=O)c3ccccc23)ccc1F` (single isomer, unassigned) [Compound 237, 3-(4-Fluoro-3-methylphenyl)-1-methyl-1-(1-(3-methyl-1-oxo-1,2-dihydroisoquinolin-4-yl)ethyl)urea] the figure was 40 nM; with `CC(c1cnc(N)c2ccccc12)N(C)C(=O)Nc1ccc(F)c(Cl)c1` (single isomer, unassigned) [Compound 238, 1-(1-(1-Aminoisoquinolin-4-yl)ethyl)-3-(3-chloro-4-fluorophenyl)-1-methylurea], 3400 nM; with `CC(c1cnc(N)c2ccccc12)N(C)C(=O)Nc1ccc(F)c(Cl)c1` (single isomer, unassigned) [Compound 239, 1-(1-(1-Aminoisoquinolin-4-yl)ethyl)-3-(3-chloro-4-fluorophenyl)-1-methylurea], 210 nM. With `CCNc1ncc(C(C)N(C)C(=O)Nc2ccc(F)c(Cl)c2)c2ccccc12` (single isomer, unassigned) [Compound 240, 3-(3-Chloro-4-fluorophenyl)-1-(1-(1-(ethylamino)isoquinolin-4-yl)ethyl)-1-methylurea] the figure was 11500 nM.

For `CCNc1ncc(C(C)N(C)C(=O)Nc2ccc(F)c(Cl)c2)c2ccccc12` (single isomer, unassigned) [Compound 241, 3-(3-Chloro-4-fluorophenyl)-1-(1-(1-(ethylamino)isoquinolin-4-yl)ethyl)-1-methylurea], the EC50 was 110 nM.

As to `CC(c1cnc(NCCO)c2ccccc12)N(C)C(=O)Nc1ccc(F)c(Cl)c1` (single isomer, unassigned) [Compound 242, 3-(3-Chloro-4-fluorophenyl)-1-(1-(1-((2-hydroxyethyl)amino)isoquinolin-4-yl)ethyl)-1-methylurea], the EC50 was 170 nM. Under `CC(c1cnc(NCCO)c2ccccc12)N(C)C(=O)Nc1ccc(F)c(Cl)c1` (single isomer, unassigned) [Compound 243, 3-(3-Chloro-4-fluorophenyl)-1-(1-(1-((2-hydroxyethyl)amino)isoquinolin-4-yl)ethyl)-1-methylurea] stands 9900 nM; under `CC(c1cnc(NCc2ncn(C)n2)c2ccccc12)N(C)C(=O)Nc1ccc(F)c(Cl)c1` (single isomer, unassigned) [Compound 245, 3-(3-Chloro-4-fluorophenyl)-1-methyl-1-(1-(1-(((1-methyl-1H-1,2,4-triazol-3-yl)methyl)amino)isoquinolin-4-yl)ethyl)urea], 13000 nM; under `CC(c1cnc(NCc2ncn(C)n2)c2ccccc12)N(C)C(=O)Nc1ccc(F)c(Cl)c1` (single isomer, unassigned) [Compound 246, 3-(3-Chloro-4-fluorophenyl)-1-methyl-1-(1-(1-(((1-methyl-1H-1,2,4-triazol-3-yl)methyl)amino)isoquinolin-4-yl)ethyl)urea], 140 nM. Turning to `CC(c1cnc(NCc2nc[nH]n2)c2ccccc12)N(C)C(=O)Nc1ccc(F)c(Cl)c1` (single isomer, unassigned) [Compound 247, 1-(1-(1-(((1H-1,2,4-Triazol-3-yl)methyl)amino)isoquinolin-4-yl)ethyl)-3-(3-chloro-4-fluorophenyl)-1-methylurea], the EC50 turned out to be 390 nM. With `CC(c1cnc(NCc2nc[nH]n2)c2ccccc12)N(C)C(=O)Nc1ccc(F)c(Cl)c1` (single isomer, unassigned) [Compound 248, 1-(1-(1-(((1H-1,2,4-Triazol-3-yl)methyl)amino)isoquinolin-4-yl)ethyl)-3-(3-chloro-4-fluorophenyl)-1-methylurea], the concentration for a half-maximal effect (EC50) was found to be 9100 nM. Under `CC(c1cnc(NCCN)c2ccccc12)N(C)C(=O)Nc1ccc(F)c(Cl)c1` (single isomer, unassigned) [Compound 249, 1-(1-(1-((2-Aminoethyl)amino)isoquinolin-4-yl)ethyl)-3-(3-chloro-4-fluorophenyl)-1-methylurea] stands 14000 nM.

For `CC(c1cnc(NCCN)c2ccccc12)N(C)C(=O)Nc1ccc(F)c(Cl)c1` (single isomer, unassigned) [Compound 250, 1-(1-(1-((2-Aminoethyl)amino)isoquinolin-4-yl)ethyl)-3-(3-chloro-4-fluorophenyl)-1-methylurea], the concentration for a half-maximal effect (EC50) came out at 1500 nM. Under `CC(c1c[nH]c(=O)c2cnccc12)N(CCCO)C(=O)Nc1ccc(F)c(Cl)c1` (single isomer, unassigned) [Compound 251, 3-(3-Chloro-4-fluorophenyl)-1-(3-hydroxypropyl)-1-(1-(1-oxo-1,2-dihydro-2,7-naphthyridin-4-yl)ethyl)urea] stands 15000 nM; under `CC(c1c[nH]c(=O)c2cnccc12)N(CCCO)C(=O)Nc1ccc(F)c(Cl)c1` (single isomer, unassigned) [Compound 252, 3-(3-Chloro-4-fluorophenyl)-1-(3-hydroxypropyl)-1-(1-(1-oxo-1,2-dihydro-2,7-naphthyridin-4-yl)ethyl)urea], 52 nM. With `CC(C)CN(C(=O)Nc1ccc(F)c(Cl)c1)C(C)c1c[nH]c(=O)c2cnccc12` (single isomer, unassigned) [Compound 253, 3-(3-Chloro-4-fluorophenyl)-1-isobutyl-1-(1-(1-oxo-1,2-dihydro-2,7-naphthyridin-4-yl)ethyl)urea] the figure was 1400 nM; with `CC(C)CN(C(=O)Nc1ccc(F)c(Cl)c1)C(C)c1c[nH]c(=O)c2cnccc12` (single isomer, unassigned) [Compound 254, 3-(3-Chloro-4-fluorophenyl)-1-isobutyl-1-(1-(1-oxo-1,2-dihydro-2,7-naphthyridin-4-yl)ethyl)urea], 16 nM; with `CC(c1cnc(OCc2ncn(C)n2)c2ccccc12)N(CCCO)C(=O)Nc1ccc(F)c(Cl)c1` (single isomer, unassigned) [Compound 255, 3-(3-Chloro-4-fluorophenyl)-1-(3-hydroxypropyl)-1-(1-(1-((1-methyl-1H-1,2,4-triazol-3-yl)methoxy)isoquinolin-4-yl)ethyl)urea], 5100 nM. Under `CC(c1cnc(OCc2ncn(C)n2)c2ccccc12)N(CCCO)C(=O)Nc1ccc(F)c(Cl)c1` (single isomer, unassigned) [Compound 256, 3-(3-Chloro-4-fluorophenyl)-1-(3-hydroxypropyl)-1-(1-(1-((1-methyl-1H-1,2,4-triazol-3-yl)methoxy)isoquinolin-4-yl)ethyl)urea] stands 13 nM; under `CC(c1cnc(OCc2nc[nH]n2)c2ccccc12)N(CCCO)C(=O)Nc1ccc(F)c(Cl)c1` (single isomer, unassigned) [Compound 259, 1-(1-(1-((1H-1,2,4-Triazol-3-yl)methoxy)isoquinolin-4-yl)ethyl)-3-(3-chloro-4-fluorophenyl)-1-(3-hydroxypropyl)urea], 2100 nM; under `CC(c1cnc(OCc2nc[nH]n2)c2ccccc12)N(CCCO)C(=O)Nc1ccc(F)c(Cl)c1` (single isomer, unassigned) [Compound 260, 1-(1-(1-((1H-1,2,4-Triazol-3-yl)methoxy)isoquinolin-4-yl)ethyl)-3-(3-chloro-4-fluorophenyl)-1-(3-hydroxypropyl)urea], 19 nM.
